What was measured:
[1] = Serum calcium level lowering effect in rats (atomic absorption spectrophotometry); type: in vivo; conditions: 80 μg/kg through tail vein, Wistar rats; for drop of serum calcium concentration compared with control group: blood at 30 and 60 minutes, control = dissolving solution only; for serum calcium concentration compared with h-CGRP administered group: versus h-CGRP 80 μg/kg
Experimental: (§1) h-CGRP, desalanyl-deamino-h-CGRP and desalanyl-[Asu^2,7 ] -h-CGRP, each 80 μg, were dissolved in 1 ml of a citrate buffer (pH 6.5) containing 0.1% of bovine serum albumin (hereinafter called "dissolving solution") and then administered to a group of 5-6 Wistar rats (80-90 g) at 80 μg/kg through their tail veins. Upon elapsed time of 30 minutes and 60 minutes, blood samples were collected from their abdominal descending aortas. The serum calcium concentrations were measured by atomic absorption spectrophotometry while the serum phosphorus concentrations were determined the method proposed by Goldenberg et al. [Clin Chem., 12, 871-882 (1966)] .

[2] = Serum phosphorus level lowering effect in rats (method of Goldenberg et al.); type: in vivo; conditions: 80 μg/kg through tail vein, Wistar rats; for drop of serum phosphorus concentration compared with control group: blood at 30 and 60 minutes, control = dissolving solution only; for serum phosphorus concentration compared with h-CGRP administered group: versus h-CGRP 80 μg/kg
Experimental: as §1

[3] = Stability in an aqueous solution; type: physicochemical
[4] = Isoelectric point (pI) of the purified peptide; type: physicochemical; conditions: purified product

Compound | drop of serum calcium concentration compared with control group [1] | serum calcium concentration compared with h-CGRP administered group [1] | drop of serum phosphorus concentration compared with control group [2] | serum phosphorus concentration compared with h-CGRP administered group [2] | stability in an aqueous solution [3] | pI [4] | activity exhibiting time (serum calcium lowering) compared with h-CGRP ([1]; 30 and 60 minutes) | activity exhibiting time (serum phosphorus lowering) compared with h-CGRP ([2]; 30 and 60 minutes)
CC(C)C[C@H](NC(=O)CNC(=O)[C@H](C)NC(=O)[C@H](CC(C)C)NC(=O)[C@H](CCCNC(=N)N)NC(=O)[C@H](Cc1c[nH]cn1)NC(=O)[C@@H](NC(=O)[C@@H](NC(=O)[C@@H]1CCCCCC(=O)N[C@@H](CC(=O)O)C(=O)N[C@@H]([C@@H](C)O)C(=O)N[C@@H](C)C(=O)N[C@@H]([C@@H](C)O)C(=O)N1)C(C)C)[C@@H](C)O)C(=O)N[C@@H](CC(C)C)C(=O)N[C@@H](CO)C(=O)N[C@@H](CCCNC(=N)N)C(=O)N[C@@H](CO)C(=O)NCC(=O)NCC(=O)N[C@H](C(=O)N[C@H](C(=O)N[C@@H](CCCCN)C(=O)N[C@@H](CC(N)=O)C(=O)N[C@@H](CC(N)=O)C(=O)N[C@@H](Cc1ccccc1)C(=O)N[C@H](C(=O)N1CCC[C@H]1C(=O)N[C@H](C(=O)N[C@@H](CC(N)=O)C(=O)N[C@H](C(=O)NCC(=O)N[C@@H](CO)C(=O)N[C@@H](CCCCN)C(=O)N[C@@H](C)C(=O)N[C@@H](Cc1ccccc1)C(N)=O)C(C)C)[C@@H](C)O)C(C)C)C(C)C)C(C)C [desalanyl-[Asu^2,7]-h-CGRP] | about 20% | dropped with significance | about 20% | dropped with significance | extremely good stability | ≥ 10.25 | – | –
CC(C)C[C@H](NC(=O)CNC(=O)[C@H](C)NC(=O)[C@H](CC(C)C)NC(=O)[C@H](CCCNC(=N)N)NC(=O)[C@H](Cc1c[nH]cn1)NC(=O)[C@@H](NC(=O)[C@@H](NC(=O)[C@@H]1CSSCCC(=O)N[C@@H](CC(=O)O)C(=O)N[C@@H]([C@@H](C)O)C(=O)N[C@@H](C)C(=O)N[C@@H]([C@@H](C)O)C(=O)N1)C(C)C)[C@@H](C)O)C(=O)N[C@@H](CC(C)C)C(=O)N[C@@H](CO)C(=O)N[C@@H](CCCNC(=N)N)C(=O)N[C@@H](CO)C(=O)NCC(=O)NCC(=O)N[C@H](C(=O)N[C@H](C(=O)N[C@@H](CCCCN)C(=O)N[C@@H](CC(N)=O)C(=O)N[C@@H](CC(N)=O)C(=O)N[C@@H](Cc1ccccc1)C(=O)N[C@H](C(=O)N1CCC[C@H]1C(=O)N[C@H](C(=O)N[C@@H](CC(N)=O)C(=O)N[C@H](C(=O)NCC(=O)N[C@@H](CO)C(=O)N[C@@H](CCCCN)C(=O)N[C@@H](C)C(=O)N[C@@H](Cc1ccccc1)C(N)=O)C(C)C)[C@@H](C)O)C(C)C)C(C)C)C(C)C [desalanyl-deamino-h-CGRP] | about 20% | dropped with significance | about 20% | dropped with significance | – | ≥ 10.25 | prolonged | prolonged
